Tests used:
Format in all cases: in vivo
[1] = test system: ivy-leaved morning glory (Ipomoea hederacea); assay: Test G Post-Emergence Protocol; settings: Ipomoea, post-emergence, 312 h, read-out: Morningglory, Ivy-leaved damage rating; for pest or weed control at 15.625 g/ha: 15.625 g ai/ha, evaluated after 13 days (100=total damage to plant; 0=no damage to plant); for pest or weed control at 62.5 g/ha: 62.5 g ai/ha; for pest or weed control at 62.5 g/ha / pest or weed control at 250 g/ha: evaluated after 13 days, 100=total damage to plant, 0=no damage to plant; for pest or weed control at 250 g/ha: 250 g ai/ha
Procedure, shortened: (§1)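 Sow in soil; grow 8 d (24/16 °C, 14 h light, 65% humidity); spray 15.625/62.5/250 g/ha in acetone:water 50:50 + 0.5% Tween 20; grow on, water twice daily; score damage 0–100 at 13 d.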

corn (Zea mays) [2] = assay: Test G Post-Emergence Protocol; settings: Zea mays, post-emergence, 312 h, read-out: Corn damage rating; for plant injury at 15.625 g/ha: 15.625 g ai/ha, evaluated after 13 days (100=total damage to plant; 0=no damage to plant); for plant injury at 62.5 g/ha: 62.5 g ai/ha; for plant injury at 62.5 g/ha / plant injury at 250 g/ha: evaluated after 13 days, 100=total damage to plant, 0=no damage to plant; for plant injury at 250 g/ha: 250 g ai/ha
Procedure, shortened: as §1

[3] = test system: giant foxtail (Setaria faberi); assay: Test G Post-Emergence Protocol; settings: Setaria faberi, post-emergence, 312 h, read-out: Foxtail, Giant damage rating; for pest or weed control at 15.625 g/ha: 15.625 g ai/ha, evaluated after 13 days (100=total damage to plant; 0=no damage to plant); for pest or weed control at 62.5 g/ha: 62.5 g ai/ha; for pest or weed control at 62.5 g/ha / pest or weed control at 250 g/ha: evaluated after 13 days, 100=total damage to plant, 0=no damage to plant; for pest or weed control at 250 g/ha: 250 g ai/ha
Procedure, shortened: as §1

[4] = test system: barnyardgrass (Echinochloa crus-galli); assay: Test G Post-Emergence Protocol; settings: Echinochloa crus-galli, post-emergence, 312 h, read-out: Barnyardgrass damage rating; for pest or weed control at 15.625 g/ha: 15.625 g ai/ha, evaluated after 13 days (100=total damage to plant; 0=no damage to plant); for pest or weed control at 62.5 g/ha: 62.5 g ai/ha; for pest or weed control at 62.5 g/ha / pest or weed control at 250 g/ha: evaluated after 13 days, 100=total damage to plant, 0=no damage to plant; for pest or weed control at 250 g/ha: 250 g ai/ha
Procedure, shortened: as §1

[5] = test system: redroot pigweed (Amaranthus retroflexus); assay: Test G Post-Emergence Protocol; settings: Amaranthus retroflexus, post-emergence, 312 h, read-out: Pigweed, Redroot damage rating; for pest or weed control at 15.625 g/ha: 15.625 g ai/ha, evaluated after 13 days (100=total damage to plant; 0=no damage to plant); for pest or weed control at 62.5 g/ha: 62.5 g ai/ha; for pest or weed control at 62.5 g/ha / pest or weed control at 250 g/ha: evaluated after 13 days, 100=total damage to plant, 0=no damage to plant; for pest or weed control at 250 g/ha: 250 g ai/ha
Procedure, shortened: as §1

[6] = test system: velvetleaf (Abutilon theophrasti); assay: Test G Post-Emergence Protocol; settings: Abutilon theophrasti, post-emergence, 312 h, read-out: Velvetleaf damage rating; for pest or weed control at 15.625 g/ha: 15.625 g ai/ha, evaluated after 13 days (100=total damage to plant; 0=no damage to plant); for pest or weed control at 62.5 g/ha: 62.5 g ai/ha; for pest or weed control at 62.5 g/ha / pest or weed control at 250 g/ha: evaluated after 13 days, 100=total damage to plant, 0=no damage to plant; for pest or weed control at 250 g/ha: 250 g ai/ha
Procedure, shortened: as §1

[7] = test system: ivy-leaved morning glory (Ipomoea hederacea); assay: Test G Pre-Emergence Protocol; settings: Ipomoea, pre-emergence, 312 h, evaluated after 13 days; for pest or weed control at 15.625 g/ha: 15.625 g ai/ha; for pest or weed control at 15.625 g/ha / pest or weed control at 250 g/ha: read-out: Morningglory, Ivy-leaved damage rating (100=total damage to plant; 0=no damage to plant); for pest or weed control at 62.5 g/ha: 62.5 g ai/ha, 100=total damage to plant, 0=no damage to plant, read-out: Morningglory, Ivy-leaved damage rating; for pest or weed control at 250 g/ha: 250 g ai/ha
Procedure, shortened: (§2)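 Spraying took place one day after sowing, at 15.625, 62.5 or 250 g/ha, using an acetone/water (50:50) spray solution containing 0.5% Tween 20. Plants were kept under glasshouse conditions (24/16 °C, 14 h light, 65% humidity, watered twice daily), and injury was rated 0–100 at day 13.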

corn (Zea mays) [8] = assay: Test G Pre-Emergence Protocol; settings: Zea mays, pre-emergence, 312 h, evaluated after 13 days; for plant injury at 15.625 g/ha: 15.625 g ai/ha; for plant injury at 15.625 g/ha / plant injury at 250 g/ha: read-out: Corn damage rating (100=total damage to plant; 0=no damage to plant); for plant injury at 62.5 g/ha: 62.5 g ai/ha, 100=total damage to plant, 0=no damage to plant, read-out: Corn damage rating; for plant injury at 250 g/ha: 250 g ai/ha
Procedure, shortened: as §2

[9] = test system: giant foxtail (Setaria faberi); assay: Test G Pre-Emergence Protocol; settings: Setaria faberi, pre-emergence, 312 h, evaluated after 13 days; for pest or weed control at 15.625 g/ha: 15.625 g ai/ha; for pest or weed control at 15.625 g/ha / pest or weed control at 250 g/ha: read-out: Foxtail, Giant damage rating (100=total damage to plant; 0=no damage to plant); for pest or weed control at 62.5 g/ha: 62.5 g ai/ha, 100=total damage to plant, 0=no damage to plant, read-out: Foxtail, Giant damage rating; for pest or weed control at 250 g/ha: 250 g ai/ha
Procedure, shortened: as §2

[10] = test system: barnyardgrass (Echinochloa crus-galli); assay: Test G Pre-Emergence Protocol; settings: Echinochloa crus-galli, pre-emergence, 312 h, evaluated after 13 days; for pest or weed control at 15.625 g/ha: 15.625 g ai/ha; for pest or weed control at 15.625 g/ha / pest or weed control at 250 g/ha: read-out: Barnyardgrass damage rating (100=total damage to plant; 0=no damage to plant); for pest or weed control at 62.5 g/ha: 62.5 g ai/ha, 100=total damage to plant, 0=no damage to plant, read-out: Barnyardgrass damage rating; for pest or weed control at 250 g/ha: 250 g ai/ha
Procedure, shortened: as §2

[11] = test system: redroot pigweed (Amaranthus retroflexus); assay: Test G Pre-Emergence Protocol; settings: Amaranthus retroflexus, pre-emergence, 312 h, evaluated after 13 days; for pest or weed control at 15.625 g/ha: 15.625 g ai/ha; for pest or weed control at 15.625 g/ha / pest or weed control at 250 g/ha: read-out: Pigweed, Redroot damage rating (100=total damage to plant; 0=no damage to plant); for pest or weed control at 62.5 g/ha: 62.5 g ai/ha, 100=total damage to plant, 0=no damage to plant, read-out: Pigweed, Redroot damage rating; for pest or weed control at 250 g/ha: 250 g ai/ha
Procedure, shortened: as §2

[12] = test system: velvetleaf (Abutilon theophrasti); assay: Test G Pre-Emergence Protocol; settings: Abutilon theophrasti, pre-emergence, 312 h, evaluated after 13 days; for pest or weed control at 15.625 g/ha: 15.625 g ai/ha; for pest or weed control at 15.625 g/ha / pest or weed control at 250 g/ha: read-out: Velvetleaf damage rating (100=total damage to plant; 0=no damage to plant); for pest or weed control at 62.5 g/ha: 62.5 g ai/ha, 100=total damage to plant, 0=no damage to plant, read-out: Velvetleaf damage rating; for pest or weed control at 250 g/ha: 250 g ai/ha
Procedure, shortened: as §2

SMILES | pest or weed control at 15.625 g/ha [1] [%] | pest or weed control at 62.5 g/ha [1] [%] | pest or weed control at 250 g/ha [1] [%] | plant injury at 15.625 g/ha (corn (Zea mays) [2]) [%] | plant injury at 62.5 g/ha (corn (Zea mays) [2]) [%] | plant injury at 250 g/ha (corn (Zea mays) [2]) [%] | pest or weed control at 15.625 g/ha [3] [%] | pest or weed control at 62.5 g/ha [3] [%] | pest or weed control at 250 g/ha [3] [%] | pest or weed control at 15.625 g/ha [4] [%] | pest or weed control at 62.5 g/ha [4] [%] | pest or weed control at 250 g/ha [4] [%] | pest or weed control at 15.625 g/ha [5] [%] | pest or weed control at 62.5 g/ha [5] [%] | pest or weed control at 250 g/ha [5] [%] | pest or weed control at 15.625 g/ha [6] [%] | pest or weed control at 62.5 g/ha [6] [%] | pest or weed control at 250 g/ha [6] [%] | pest or weed control at 15.625 g/ha [7] [%] | pest or weed control at 62.5 g/ha [7] [%] | also measured
C=Cc1cccc([C@@H]2CN(C)C(=O)[C@H]2C(=O)Nc2cccc(F)c2F)c1 (racemic) [Compound 1762] | 30 | 60 | 70 | 20 | 30 | 80 | 60 | 70 | 80 | 10 | 50 | 80 | 20 | 0 | 10 | 10 | 0 | 70 | 0 | 10 | pest or weed control at 250 g/ha [7]: 10%; plant injury at 15.625 g/ha (corn (Zea mays) [8]): 0%; plant injury at 62.5 g/ha (corn (Zea mays) [8]): 30%; plant injury at 250 g/ha (corn (Zea mays) [8]): 80%; pest or weed control at 15.625 g/ha [9]: 70%; pest or weed control at 62.5 g/ha [9]: 80%; pest or weed control at 250 g/ha [9]: 80%; pest or weed control at 15.625 g/ha [10]: 70%; pest or weed control at 62.5 g/ha [10]: 80%; pest or weed control at 250 g/ha [10]: 80%; pest or weed control at 15.625 g/ha [11]: 0%; pest or weed control at 62.5 g/ha [11]: 10%; pest or weed control at 250 g/ha [11]: 20%; pest or weed control at 15.625 g/ha [12]: 0%; pest or weed control at 62.5 g/ha [12]: 0%; pest or weed control at 250 g/ha [12]: 10%
CN1C[C@H](c2ccc(F)c(C#N)c2)[C@@H](C(=O)Nc2ccccc2S(C)(=O)=O)C1=O (racemic) [Compound 1798] | 0 | 0 | 0 | 0 | 0 | 0 | 0 | 20 | 10 | 0 | 0 | 0 | 0 | 0 | 20 | 0 | 0 | 0 | 0 | 0 | pest or weed control at 250 g/ha [7]: 0%; plant injury at 15.625 g/ha (corn (Zea mays) [8]): 0%; plant injury at 62.5 g/ha (corn (Zea mays) [8]): 0%; plant injury at 250 g/ha (corn (Zea mays) [8]): 0%; pest or weed control at 15.625 g/ha [9]: 0%; pest or weed control at 62.5 g/ha [9]: 10%; pest or weed control at 250 g/ha [9]: 30%; pest or weed control at 15.625 g/ha [10]: 0%; pest or weed control at 62.5 g/ha [10]: 0%; pest or weed control at 250 g/ha [10]: 10%; pest or weed control at 15.625 g/ha [11]: 0%; pest or weed control at 62.5 g/ha [11]: 0%; pest or weed control at 250 g/ha [11]: 20%; pest or weed control at 15.625 g/ha [12]: 0%; pest or weed control at 62.5 g/ha [12]: 0%; pest or weed control at 250 g/ha [12]: 10%
CCOc1cc([C@@H]2CN(C)C(=O)[C@H]2C(=O)Nc2cccc(F)c2C)ccc1F (racemic) [Compound 1767] | 30 | 30 | 60 | 10 | 10 | 60 | 70 | 70 | 80 | 40 | 50 | 80 | 0 | 0 | 20 | 0 | 0 | 60 | 0 | 0 | pest or weed control at 250 g/ha [7]: 20%; plant injury at 15.625 g/ha (corn (Zea mays) [8]): 0%; plant injury at 62.5 g/ha (corn (Zea mays) [8]): 30%; plant injury at 250 g/ha (corn (Zea mays) [8]): 60%; pest or weed control at 15.625 g/ha [9]: 60%; pest or weed control at 62.5 g/ha [9]: 80%; pest or weed control at 250 g/ha [9]: 90%; pest or weed control at 15.625 g/ha [10]: 20%; pest or weed control at 62.5 g/ha [10]: 60%; pest or weed control at 250 g/ha [10]: 80%; pest or weed control at 15.625 g/ha [11]: 0%; pest or weed control at 62.5 g/ha [11]: 0%; pest or weed control at 250 g/ha [11]: 0%; pest or weed control at 15.625 g/ha [12]: 0%; pest or weed control at 62.5 g/ha [12]: 0%; pest or weed control at 250 g/ha [12]: 30%
